Measurements from ChEMBL document CHEMBL5126517, “Structure-Activity Relationship in the Leucettine Family of Kinase Inhibitors” (J Med Chem, 2022).

Columns and labels:
[1] = molecular target: Dual specificity protein kinase CLK4 (Mus musculus, UniProt O35493); test: Inhibition of GST-fused mouse recombinant CLK4 expressed in Escherichia coli using GRSRSRSRSRSR peptide as substrate incubated for 30 mins in presence of ATP by scintillation counting method
[2] = molecular target: Dual specificity protein kinase CLK1 (Mus musculus, UniProt P22518); test: Inhibition of GST-fused mouse recombinant CLK1 expressed in Escherichia coli using GRSRSRSRSRSR peptide as substrate incubated for 30 mins in presence of ATP by scintillation counting method
[3] = molecular target: T1, Dual specificity tyrosine-phosphorylation-regulated kinase 1A (Homo sapiens, UniProt Q13627); test: Inhibition of GST-fused human recombinant DYRK1A expressed in Escherichia coli using GRSRSRSRSRSR peptide as substrate incubated for 30 mins in presence of ATP by scintillation counting method
[4] = molecular target: Dual specificity tyrosine-phosphorylation-regulated kinase 1B (Homo sapiens, UniProt Q9Y463)
[5] = molecular target: T2, Dual specificity tyrosine-phosphorylation-regulated kinase 2 (Homo sapiens, UniProt Q92630); test: Inhibition of GST-fused human recombinant DYRK2 expressed in Escherichia coli using GRSRSRSRSRSR peptide as substrate incubated for 30 mins in presence of ATP by scintillation counting method
T2 sequence (Q92630 whole entry): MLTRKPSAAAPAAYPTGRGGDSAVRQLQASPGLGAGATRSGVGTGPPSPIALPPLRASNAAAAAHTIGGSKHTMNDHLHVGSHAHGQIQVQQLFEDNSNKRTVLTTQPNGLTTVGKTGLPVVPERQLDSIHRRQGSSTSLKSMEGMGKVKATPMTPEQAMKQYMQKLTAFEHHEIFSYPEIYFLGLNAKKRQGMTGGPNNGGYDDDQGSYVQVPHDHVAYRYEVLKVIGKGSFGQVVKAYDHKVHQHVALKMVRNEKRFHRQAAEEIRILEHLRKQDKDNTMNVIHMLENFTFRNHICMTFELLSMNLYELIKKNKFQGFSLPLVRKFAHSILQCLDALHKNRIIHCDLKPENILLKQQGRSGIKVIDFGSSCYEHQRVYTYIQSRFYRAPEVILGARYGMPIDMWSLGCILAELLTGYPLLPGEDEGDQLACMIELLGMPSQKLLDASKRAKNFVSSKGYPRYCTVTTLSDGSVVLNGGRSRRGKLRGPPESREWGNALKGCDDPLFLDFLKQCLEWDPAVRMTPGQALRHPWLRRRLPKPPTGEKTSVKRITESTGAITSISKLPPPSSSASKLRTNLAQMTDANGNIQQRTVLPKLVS

[6] = molecular target: T3, Dual specificity tyrosine-phosphorylation-regulated kinase 3 (Homo sapiens, UniProt O43781); test: Inhibition of GST-fused human recombinant DYRK3 expressed in Escherichia coli using GRSRSRSRSRSR peptide as substrate incubated for 30 mins in presence of ATP by scintillation counting method
T3 sequence (O43781 whole entry): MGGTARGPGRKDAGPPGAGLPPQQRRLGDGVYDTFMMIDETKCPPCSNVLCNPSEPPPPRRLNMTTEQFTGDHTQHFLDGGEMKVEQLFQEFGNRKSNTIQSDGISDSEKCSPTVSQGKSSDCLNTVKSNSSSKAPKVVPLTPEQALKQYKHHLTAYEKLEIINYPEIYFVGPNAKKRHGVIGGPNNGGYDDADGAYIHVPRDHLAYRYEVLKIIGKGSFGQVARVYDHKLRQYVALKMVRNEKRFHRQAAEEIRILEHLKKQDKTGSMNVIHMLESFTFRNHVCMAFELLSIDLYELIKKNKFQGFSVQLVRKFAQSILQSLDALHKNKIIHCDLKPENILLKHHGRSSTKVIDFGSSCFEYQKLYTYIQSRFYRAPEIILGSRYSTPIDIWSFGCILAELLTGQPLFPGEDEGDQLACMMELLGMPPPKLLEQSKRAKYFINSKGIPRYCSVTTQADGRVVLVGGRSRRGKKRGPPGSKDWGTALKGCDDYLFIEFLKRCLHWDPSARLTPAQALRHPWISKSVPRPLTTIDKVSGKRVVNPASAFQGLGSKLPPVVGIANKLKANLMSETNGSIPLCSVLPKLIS

[7] = molecular target: Serine/threonine-protein kinase pim-1 (Homo sapiens, UniProt P11309); test: Inhibition of human recombinant Pim1 expressed in Escherichia coli using histone H1 as substrate incubated for 30 mins in presence of ATP by scintillation counting method
[8] = Neurotoxicity against mouse HT-22 cells assessed as cell survival treated for 24 hrs by MTS assay; assay type: toxicity, cell-based
HT-22 [9] = test: Neuroprotective activity against glutamate-induced cell death in mouse HT-22 cells treated for 24 hrs by MTS assay; assay type: functional, cell-based; conditions: HT-22, 24 h
U2OS = test: Induction of PI3K/mTor-dependent autophagy in human U2OS cells assessed as number of LC3 foci per cell at 10 uM measured after 4 hrs; assay type: cell-based; conditions: filed as activator
Cannabinoid receptor 1 [10] = molecular target: T4, Cannabinoid receptor 1 (Homo sapiens, UniProt P21554); test: Antagonist activity at CP-55940-activated CB1 receptor (unknown origin) at 10 uM by beta-arrestin assay relative to control; assay type: functional; design: scale not given: the % may be the effect or the level left
Cannabinoid receptor 1 [11] = molecular target: T4, Cannabinoid receptor 1; test: Antagonist activity at CP-55940-activated CB1 receptor (unknown origin) by beta-arrestin assay; assay type: functional
[12] = molecular target: Glycogen synthase kinase-3 (Sus scrofa, UniProt B2LUN4+I6LNT8); test: Inhibition of porcine brain GSK-3alpha/beta using YRRAAVPPSPSLSRHSSPHQpSEDEEE as substrate incubated for 30 mins in presence of ATP by scintillation counting method; assay type: tissue-based
[13] = molecular target: Dual specificity protein kinase CLK3 (Mus musculus, UniProt O35492); test: Inhibition of GST-fused mouse recombinant CLK3 expressed in Escherichia coli using GRSRSRSRSRSR peptide as substrate incubated for 30 mins in presence of ATP by scintillation counting method
[14] = molecular target: Dual specificity protein kinase CLK2 (Mus musculus, UniProt O35491); test: Inhibition of mouse recombinant GST-fused CLK2 expressed in Escherichia coli using GRSRSRSRSRSR peptide as substrate incubated for 30 mins in presence of ATP by scintillation counting method
Casein kinase 2 = Casein kinase 2 (Homo sapiens, UniProt P67870+P68400+P19784+Q8NEV1); test: Inhibition of human recombinant CK2 using RRRDDDSDDD peptide as substrate incubated for 30 mins in presence of ATP by scintillation counting method; assay type: protein assay
HT-22 [15] = test: Modulation of CLK1 pre-mRNA splicing in mouse HT-22 cells assessed as inclusion of CLK1 exon 4 by measuring change in threshold cycle at 10 uM measured after 4 hrs by real time PCR analysis; assay type: cell-based; conditions: filed as modulator
[16] = molecular target: T1, Dual specificity tyrosine-phosphorylation-regulated kinase 1A; test: Inhibition of DYRK1A in human SH-SY5Y overexpressing Tau4R cells assessed as phosphorylated Tau Thr212 residue level at 10 uM incubated for 6 hrs by western blot analysis relative to control; assay type: cell-based
[17] = Neurotoxicity against mouse HT-22 cells assessed as cell survival at 20 uM treated for 24 hrs by MTS assay; assay type: toxicity, cell-based; conditions: ht-22, 24 h

T4 sequence (P21554 whole entry): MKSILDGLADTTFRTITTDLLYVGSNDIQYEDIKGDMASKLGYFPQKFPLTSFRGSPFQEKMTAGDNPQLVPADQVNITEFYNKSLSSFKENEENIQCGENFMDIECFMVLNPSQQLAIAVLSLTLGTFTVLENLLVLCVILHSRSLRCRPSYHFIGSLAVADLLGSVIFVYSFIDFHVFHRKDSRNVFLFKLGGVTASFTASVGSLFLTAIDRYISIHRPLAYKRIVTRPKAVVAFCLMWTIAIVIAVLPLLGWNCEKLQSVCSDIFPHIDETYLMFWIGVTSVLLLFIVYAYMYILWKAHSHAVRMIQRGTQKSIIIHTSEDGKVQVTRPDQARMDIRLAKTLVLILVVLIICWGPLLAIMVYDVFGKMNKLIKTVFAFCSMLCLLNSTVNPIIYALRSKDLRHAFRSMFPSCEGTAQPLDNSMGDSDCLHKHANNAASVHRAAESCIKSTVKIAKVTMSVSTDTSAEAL
Dual specificity protein kinase CLK4, sequence (O35493 whole entry, the tested form may be a part): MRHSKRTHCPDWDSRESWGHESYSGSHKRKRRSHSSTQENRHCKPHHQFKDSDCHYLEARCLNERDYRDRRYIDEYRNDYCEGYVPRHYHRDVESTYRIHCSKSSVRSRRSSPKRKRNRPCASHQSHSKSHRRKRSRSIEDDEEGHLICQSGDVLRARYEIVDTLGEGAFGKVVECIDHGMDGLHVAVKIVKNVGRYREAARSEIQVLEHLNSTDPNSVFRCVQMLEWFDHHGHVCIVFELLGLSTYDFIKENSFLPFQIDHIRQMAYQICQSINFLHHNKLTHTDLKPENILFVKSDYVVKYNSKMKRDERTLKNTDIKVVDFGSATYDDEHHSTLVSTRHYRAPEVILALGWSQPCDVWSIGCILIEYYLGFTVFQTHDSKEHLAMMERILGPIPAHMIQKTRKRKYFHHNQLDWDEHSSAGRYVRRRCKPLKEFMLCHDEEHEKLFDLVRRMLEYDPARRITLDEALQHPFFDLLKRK
Dual specificity protein kinase CLK1, sequence (P22518 whole entry, the tested form may be a part): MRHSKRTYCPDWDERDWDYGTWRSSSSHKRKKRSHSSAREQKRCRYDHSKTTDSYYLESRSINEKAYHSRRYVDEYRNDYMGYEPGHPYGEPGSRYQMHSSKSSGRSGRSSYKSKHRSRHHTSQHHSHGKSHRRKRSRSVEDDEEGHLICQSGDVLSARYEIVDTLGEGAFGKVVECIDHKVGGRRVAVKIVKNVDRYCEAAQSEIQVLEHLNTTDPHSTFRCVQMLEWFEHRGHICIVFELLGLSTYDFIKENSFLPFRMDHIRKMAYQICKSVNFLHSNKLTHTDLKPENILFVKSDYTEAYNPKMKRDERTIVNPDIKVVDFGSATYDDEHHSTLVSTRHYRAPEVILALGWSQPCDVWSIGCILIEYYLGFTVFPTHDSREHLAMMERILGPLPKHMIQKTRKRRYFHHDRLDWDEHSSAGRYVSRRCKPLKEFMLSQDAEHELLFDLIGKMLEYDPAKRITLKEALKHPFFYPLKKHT
Dual specificity protein kinase CLK2, sequence (O35491 whole entry, the tested form may be a part): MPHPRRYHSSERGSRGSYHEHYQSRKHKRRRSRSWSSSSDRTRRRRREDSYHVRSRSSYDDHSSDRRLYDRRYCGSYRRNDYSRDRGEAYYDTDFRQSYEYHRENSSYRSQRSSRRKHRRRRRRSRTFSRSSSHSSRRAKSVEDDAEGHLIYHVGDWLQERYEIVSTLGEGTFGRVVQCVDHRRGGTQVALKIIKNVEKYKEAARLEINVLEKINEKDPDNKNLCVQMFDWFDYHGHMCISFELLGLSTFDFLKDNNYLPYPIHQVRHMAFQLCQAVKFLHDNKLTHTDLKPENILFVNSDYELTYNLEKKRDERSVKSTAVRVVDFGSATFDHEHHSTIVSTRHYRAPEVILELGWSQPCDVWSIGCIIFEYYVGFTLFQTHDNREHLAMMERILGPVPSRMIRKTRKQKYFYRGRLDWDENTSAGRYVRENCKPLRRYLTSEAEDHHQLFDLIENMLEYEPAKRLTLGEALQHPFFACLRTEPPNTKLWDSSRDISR
Dual specificity tyrosine-phosphorylation-regulated kinase 1B, sequence (Q9Y463 whole entry, the tested form may be a part): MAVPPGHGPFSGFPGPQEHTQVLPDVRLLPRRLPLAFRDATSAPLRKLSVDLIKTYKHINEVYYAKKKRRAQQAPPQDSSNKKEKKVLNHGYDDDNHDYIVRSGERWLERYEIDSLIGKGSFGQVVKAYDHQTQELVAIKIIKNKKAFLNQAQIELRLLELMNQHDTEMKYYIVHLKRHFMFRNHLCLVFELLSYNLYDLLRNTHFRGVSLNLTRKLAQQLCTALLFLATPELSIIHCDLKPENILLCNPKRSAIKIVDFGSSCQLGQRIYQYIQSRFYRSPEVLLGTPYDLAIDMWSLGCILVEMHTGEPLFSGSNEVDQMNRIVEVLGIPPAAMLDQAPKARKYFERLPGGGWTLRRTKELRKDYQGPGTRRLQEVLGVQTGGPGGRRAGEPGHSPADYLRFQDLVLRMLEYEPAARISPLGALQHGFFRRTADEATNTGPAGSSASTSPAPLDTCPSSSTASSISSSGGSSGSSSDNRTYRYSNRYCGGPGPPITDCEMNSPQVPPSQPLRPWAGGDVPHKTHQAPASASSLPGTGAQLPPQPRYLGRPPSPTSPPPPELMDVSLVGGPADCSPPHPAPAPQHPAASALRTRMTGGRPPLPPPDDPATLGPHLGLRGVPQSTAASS
Dual specificity protein kinase CLK3, sequence (O35492 whole entry, the tested form may be a part): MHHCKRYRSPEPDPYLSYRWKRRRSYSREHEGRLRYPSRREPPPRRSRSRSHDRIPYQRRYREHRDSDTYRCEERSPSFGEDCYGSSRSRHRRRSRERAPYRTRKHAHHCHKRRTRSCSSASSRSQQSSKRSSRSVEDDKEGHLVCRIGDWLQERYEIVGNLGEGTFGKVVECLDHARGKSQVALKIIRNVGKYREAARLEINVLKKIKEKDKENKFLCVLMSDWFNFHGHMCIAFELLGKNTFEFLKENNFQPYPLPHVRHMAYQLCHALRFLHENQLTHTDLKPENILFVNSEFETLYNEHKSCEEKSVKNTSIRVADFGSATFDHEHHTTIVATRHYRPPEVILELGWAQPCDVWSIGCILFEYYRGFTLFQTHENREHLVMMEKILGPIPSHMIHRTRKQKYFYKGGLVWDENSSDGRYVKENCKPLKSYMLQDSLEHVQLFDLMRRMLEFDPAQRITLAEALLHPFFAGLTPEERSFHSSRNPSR
Serine/threonine-protein kinase pim-1, sequence (P11309 whole entry): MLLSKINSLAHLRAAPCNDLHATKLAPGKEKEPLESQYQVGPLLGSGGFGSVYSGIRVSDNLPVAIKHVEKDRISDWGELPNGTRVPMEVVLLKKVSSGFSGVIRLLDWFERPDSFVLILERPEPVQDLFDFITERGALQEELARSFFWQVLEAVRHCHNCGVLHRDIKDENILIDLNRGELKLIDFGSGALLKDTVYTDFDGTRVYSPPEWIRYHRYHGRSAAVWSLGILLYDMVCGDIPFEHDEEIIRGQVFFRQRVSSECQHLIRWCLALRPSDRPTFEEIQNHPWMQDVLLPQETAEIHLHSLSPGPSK

| SMILES | IC50 [1] [nM] | IC50 [2] [nM] | IC50 [3] [nM] | IC50 [4] [nM] | IC50 [5] [nM] | IC50 [6] [nM] | IC50 [7] [nM] | EC50 at 24 h [8] [nM] | EC50 (HT-22 [9]) [nM] | Activity (U2OS) | IC50 [12] [nM] | IC50 [13] [nM] | IC50 [14] [nM] | IC50 (Casein kinase 2) [nM] | deltaCT (HT-22 [15]) | Activity (Cannabinoid receptor 1 [10]) [%] | inhibition [16] [%] | Activity [17] | other results |
| --- | --- | --- | --- | --- | --- | --- | --- | --- | --- | --- | --- | --- | --- | --- | --- | --- | --- | --- | --- |
| CCCCCCc1ccc(NC2=N/C(=C\c3ccc(O)c(OC)c3)C(=O)N2)cc1 | > 10000 | > 10000 | ≥ 10000 | ≥ 10000 | ≥ 10000 | > 10000 | > 10000 | > 20000 | 270 | 7.6 | – | – | – | – | – | – | – | – | Activity (Cannabinoid receptor 1 [10]; filed as antagonist): 48.1%; IC50 (Cannabinoid receptor 1 [11]): 2000 nM |
| NC1=N/C(=C\c2ccc3c(c2)OCO3)C(=O)N1 | 37 | 41 | 35 | 190 | 32 | 240 | 320 | > 20000 | – | 5 | 2100 | 950 | 180 | 930 | 3.02 | -2.2 | – | – | – |
| O=C1NC(Nc2ccc(-c3ccccc3)cc2)=N/C1=C\c1ccc2c(c1)OCO2 | 5200 | > 10000 | 8100 | > 10000 | 4200 | – | – | – | > 20000 | 6.8 | – | – | > 10000 | – | – | 36.8 | -5.1 | Non-Toxic | – |
| CN1C(=O)/C(=C/c2ccc3c(c2)OCO3)N=C1N [LEUCETTAMINE B] | – | 140 | – | – | 430 | 1300 | > 10000 | – | – | 4.3 | 5000 | 6000 | 940 | – | 1.14 | 9.5 | – | Non-Toxic | IC50 (Cannabinoid receptor 1 [11]): > 10000 nM |
| CCCCOc1ccc(/C=C2\N=C(Nc3ccccc3)NC2=O)cc1OC | – | – | – | – | – | – | – | – | 2450 | 7.6 | – | – | – | – | – | – | -8 | Non-Toxic | Activity (Cannabinoid receptor 1 [10]; filed as antagonist): 54.3% |
| CCCNC1=N/C(=C\c2ccc3c(c2)OCO3)C(=O)N1c1ccccc1 | 1200 | 2000 | > 10000 | > 10000 | 7200 | 7000 | – | > 20000 | – | 4.7 | > 10000 | 9500 | 2500 | – | -0.05 | -17.9 | – | – | – |
| CCCSC1=N/C(=C\c2ccc3c(c2)OCO3)C(=O)N1 | 27 | 34 | 40 | 90 | 37 | 510 | 950 | > 20000 | – | 7.3 | 1400 | 3100 | 110 | 1700 | 2.48 | -2.6 | -2.4 | Non-Toxic | – |
| CCSC1=N/C(=C\c2ccc3c(c2)OCO3)C(=O)N1 | 23 | 29 | 33 | 72 | 32 | 160 | 340 | > 20000 | – | 5.5 | 900 | 1400 | 120 | 600 | 0.57 | -7.5 | – | Non-Toxic | – |
| CCCNC1=N/C(=C\c2ccc3c(c2)OCO3)C(=O)N1CCC | 2300 | 3000 | > 10000 | > 10000 | > 10000 | > 10000 | – | – | – | 5 | > 10000 | > 10000 | ≥ 10000 | – | -0.32 | -13.4 | -1.5 | Non-Toxic | – |
| CCCNC1=N/C(=C\c2ccc3c(c2)OCO3)C(=O)N1 | 61 | 70 | 120 | 310 | 100 | 650 | 1200 | > 20000 | – | 5.1 | 4100 | 3000 | 550 | 1400 | 5.11 | -14.8 | – | – | – |
| CNC1=N/C(=C\c2ccc3c(c2)OCO3)C(=O)N1 | 94 | 140 | 160 | 500 | 130 | 480 | 1200 | > 20000 | – | 4.9 | 6200 | 1200 | 530 | 1800 | 1 | -14.7 | – | Non-Toxic | – |
| O=C1NC(Nc2ccc(O)cc2)=N/C1=C\c1ccc2c(c1)OCO2 | 18 | 22 | 13 | 24 | 11 | 140 | 1100 | > 20000 | 9000 | 12 | 530 | 280 | 83 | 140 | 7.91 | -25.5 | – | – | – |
| O=C1NC(Nc2ccccc2)=N/C1=C\c1cccc(F)c1 | – | – | > 10000 | – | – | – | > 10000 | – | 3500 | 5.9 | – | – | – | – | – | – | – | – | IC50 at 24 h [8]: > 20000 nM; Activity (Cannabinoid receptor 1 [10]; filed as antagonist): 79.5%; IC50 (Cannabinoid receptor 1 [11]): 916 nM |
| CCNC1=N/C(=C\c2ccc3c(c2)OCO3)C(=O)N1 | 60 | 65 | 140 | 480 | 190 | 470 | 1200 | – | – | 5.6 | 2400 | 2300 | 380 | 410 | 2.64 | -40.4 | -6 | Non-Toxic | – |
